# Assay results published in patent US9833497B2, “Human originated EGF domain proteins and use of the same” (CHENGDU SOURCEBIO LIMITED-LIABILITY COMPANY, priority 2013, dated 2017).
# Legend:
# Format in all cases: cell-based
# [1] = system: E. coli DH5α; test: Antibacterial activity: MIC and growth curve against E. coli DH5α in 96-well plate; settings: minimal inhibitory concentration against E. coli DH5α; 96-well plate, 5×10^5 CFU/mL, 37° C., judged after 8 h
# Summary of the method: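 Log-phase DH5α (OD600 about 0.5, 37° C, 185 rpm in LB) was pelleted, resuspended in fresh LB and seeded at 5×10^5 CFU/mL with recombinant protein at 50, 25 and 12.5 μg/mL (two-fold series), in triplicate. Plates were shaken at 175 rpm, 37° C, and OD600 was read every 30 min. MIC was the lowest concentration with no growth.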
# [2] = system: E. coli BL21; test: MIC against Gram-negative bacteria: E. coli BL21; settings: for MIC (μg/mL) E. coli BL21 / MIC against E. coli BL21: 5×10^5 CFU/mL
# Summary of the method: (§1)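 LB broth cultures at McFarland 0.5, spun down, resuspended, diluted to 5×10^5 CFU/mL final. Two-fold serial dilutions of purified human EGF domain proteins, triplicate. 37° C, 175 rpm shaking. Endpoint: no visible growth.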
# [3] = system: Pseudomonas aeruginosa; test: MIC against Gram-negative bacteria: Pseudomonas aeruginosa; settings: for MIC (μg/mL) P. aeruginosa / MIC against P. aeruginosa: 5×10^5 CFU/mL
# Summary of the method: as §1
# [4] = system: Klebsiella pneumonia; test: MIC against Gram-negative bacteria: Klebsiella pneumonia; settings: for MIC (μg/mL) K. pneumonia / MIC against K. pneumonia: 5×10^5 CFU/mL
# Summary of the method: as §1
# [5] = system: Enterobacter cloacae; test: MIC against Gram-negative bacteria: Enterobacter cloacae; settings: for MIC (μg/mL) E. cloacae / MIC against E. cloacae: 5×10^5 CFU/mL
# Summary of the method: as §1
# [6] = system: Aeromonas hydrophila; test: MIC against Gram-negative bacteria: Aeromonas hydrophila; settings: for MIC (μg/mL) A. hydrophila / MIC against A. hydrophila: 5×10^5 CFU/mL
# Summary of the method: as §1
# [7] = system: Citrobacter diversus; test: MIC against Gram-negative bacteria: Citrobacter diversus; settings: for MIC (μg/mL) C. diversus / MIC against C. diversus: 5×10^5 CFU/mL
# Summary of the method: as §1
# [8] = system: Moraxella catarrhalis; test: MIC against Gram-negative bacteria: Moraxella catarrhalis; settings: for MIC (μg/mL) M. catarrhalis / MIC against M. catarrhalis: 5×10^5 CFU/mL
# Summary of the method: as §1
# [9] = system: Proteus mirabilis; test: MIC against Gram-negative bacteria: Proteus mirabilis; settings: for MIC (μg/mL) P. mirabilis / MIC against P. mirabilis: 5×10^5 CFU/mL
# Summary of the method: as §1
# [10] = system: Proteus vulgaris; test: MIC against Gram-negative bacteria: Proteus vulgaris; settings: for MIC (μg/mL) P. vulgaris / MIC against P. vulgaris: 5×10^5 CFU/mL
# Summary of the method: as §1
# [11] = system: Serratia marcescens; test: MIC against Gram-negative bacteria: Serratia marcescens; settings: for MIC (μg/mL) S. marcescens / MIC against S. marcescens: 5×10^5 CFU/mL
# Summary of the method: as §1
# [12] = E. coli BL21, 10 h cultivation at 37° C.
# [13] = P. aeruginosa, 10 h cultivation at 37° C.
# [14] = K. pneumonia, 10 h cultivation at 37° C.
# [15] = E. cloacae, 10 h cultivation at 37° C.
# [16] = A. hydrophila, 10 h cultivation at 37° C.
# [17] = C. diversus, 10 h cultivation at 37° C.
# [18] = M. catarrhalis, 10 h cultivation at 37° C.
# [19] = P. mirabilis, 10 h cultivation at 37° C.
# [20] = P. vulgaris, 10 h cultivation at 37° C.
# [21] = S. marcescens, 10 h cultivation at 37° C.
# [22] = E. coli BL21, 96-well plate, 37° C., 10 h
# [23] = Pseudomonas aeruginosa, 96-well plate, 37° C., 10 h
# [24] = Klebsiella pneumonia, 96-well plate, 37° C., 10 h
# [25] = Enterobacter cloacae, 96-well plate, 37° C., 10 h
# [26] = Aeromonas hydrophila, 96-well plate, 37° C., 10 h
# [27] = Citrobacter diversus, 96-well plate, 37° C., 10 h
# [28] = Moraxella catarrhalis, 96-well plate, 37° C., 10 h
# [29] = Proteus mirabilis, 96-well plate, 37° C., 10 h
# [30] = Proteus vulgaris, 96-well plate, 37° C., 10 h
# [31] = Serratia marcescens, 96-well plate, 37° C., 10 h
substance,measurement,setting,value
PRT775 (SSLKCPDACNAQHKQCLIKKSGGAPECACVPGYQEDANGNCQ; listed as Homo sapiens),MIC,[1],12.5 µg/mL
same,MIC (μg/mL) E. coli BL21,[2]; [12],25 µg/mL
same,MIC (μg/mL) P. aeruginosa,[3]; [13],50 µg/mL
same,MIC (μg/mL) K. pneumonia,[4]; [14],12.5 µg/mL
same,MIC (μg/mL) E. cloacae,[5]; [15],50 µg/mL
same,MIC (μg/mL) A. hydrophila,[6]; [16],12.5 µg/mL
same,MIC (μg/mL) C. diversus,[7]; [17],50 µg/mL
same,MIC (μg/mL) M. catarrhalis,[8]; [18],12.5 µg/mL
same,MIC (μg/mL) P. mirabilis,[9]; [19],50 µg/mL
same,MIC (μg/mL) P. vulgaris,[10]; [20],12.5 µg/mL
same,MIC (μg/mL) S. marcescens,[11]; [21],50 µg/mL
PRT58 (PCALGEGPACAHCAPDNSTRCGSCNPGYVLAQGLCR; listed as Homo sapiens),MIC,[1],12.5 µg/mL
same,MIC (μg/mL) E. coli BL21,[2]; [22],25 µg/mL
same,MIC (μg/mL) P. aeruginosa,[3]; [23],12.5 µg/mL
same,MIC (μg/mL) K. pneumonia,[4]; [24],12.5 µg/mL
same,MIC (μg/mL) E. cloacae,[5]; [25],12.5 µg/mL
same,MIC (μg/mL) A. hydrophila,[6]; [26],12.5 µg/mL
same,MIC (μg/mL) C. diversus,[7]; [27],12.5 µg/mL
same,MIC (μg/mL) M. catarrhalis,[8]; [28],25 µg/mL
same,MIC (μg/mL) P. mirabilis,[9]; [29],100 µg/mL
same,MIC (μg/mL) P. vulgaris,[10]; [30],25 µg/mL
same,MIC (μg/mL) S. marcescens,[11]; [31],50 µg/mL
PRT996 (DIDECRSSPCANGGQCQDQPGAFHCKCLPGFEGPRCQ; listed as Homo sapiens),MIC,[1],25 µg/mL
same,MIC,[2]; [12],12.5 µg/mL
same,MIC,[3]; [13],25 µg/mL
same,MIC,[4]; [14],12.5 µg/mL
same,MIC,[5]; [15],12.5 µg/mL
same,MIC,[6]; [16],100 µg/mL
same,MIC,[7]; [17],12.5 µg/mL
same,MIC,[8]; [18],25 µg/mL
same,MIC,[9]; [19],12.5 µg/mL
same,MIC,[10]; [20],25 µg/mL
same,MIC,[11]; [21],12.5 µg/mL
PRT494 (CNCSLVGSTHHRCDVVTGHCQCKSKFGGRACDQCSLGYRDFPDCVP; listed as Homo sapiens),MIC,[1],50 µg/mL
same,MIC against E. coli BL21,"[2]; 96-well plate, 37° C., 10 h",25 µg/mL
same,MIC against P. aeruginosa,"[3]; 96-well plate, 37° C., 10 h",12.5 µg/mL
same,MIC against K. pneumonia,"[4]; 96-well plate, 37° C., 10 h",25 µg/mL
same,MIC against E. cloacae,"[5]; 96-well plate, 37° C., 10 h",50 µg/mL
same,MIC against A. hydrophila,"[6]; 96-well plate, 37° C., 10 h",25 µg/mL
same,MIC against C. diversus,"[7]; 96-well plate, 37° C., 10 h",12.5 µg/mL
same,MIC against M. catarrhalis,"[8]; 96-well plate, 37° C., 10 h",25 µg/mL
same,MIC against P. mirabilis,"[9]; 96-well plate, 37° C., 10 h",50 µg/mL
same,MIC against P. vulgaris,"[10]; 96-well plate, 37° C., 10 h",25 µg/mL
same,MIC against S. marcescens,"[11]; 96-well plate, 37° C., 10 h",12.5 µg/mL
PRT1269 (DIDECQTRNGGCDHFCKNIVGSFDCGCKKGFKLLTDEKSCQ; listed as Homo sapiens),MIC,[1],12.5 µg/mL
same,MIC against E. coli BL21,[2]; [22],50 µg/mL
same,MIC against P. aeruginosa,[3]; [23],25 µg/mL
same,MIC against K. pneumonia,[4]; [24],12.5 µg/mL
same,MIC against E. cloacae,[5]; [25],25 µg/mL
same,MIC against A. hydrophila,[6]; [26],50 µg/mL
same,MIC against C. diversus,[7]; [27],12.5 µg/mL
same,MIC against M. catarrhalis,[8]; [28],50 µg/mL
same,MIC against P. mirabilis,[9]; [29],12.5 µg/mL
same,MIC against P. vulgaris,[10]; [30],50 µg/mL
same,MIC against S. marcescens,[11]; [31],12.5 µg/mL
PRT1219 (DHDSCVHGPCQNGGSCLRRLAVSSVLKSRESLPVIIVANEPLQPFLCKCLPGYAGSWCE; listed as Homo sapiens),MIC,[1],12.5 µg/mL
same,MIC against E. coli BL21,[2]; [22],50 µg/mL
same,MIC against P. aeruginosa,[3]; [23],25 µg/mL
same,MIC against K. pneumonia,[4]; [24],12.5 µg/mL
same,MIC against E. cloacae,[5]; [25],50 µg/mL
same,MIC against A. hydrophila,[6]; [26],12.5 µg/mL
same,MIC against C. diversus,[7]; [27],25 µg/mL
same,MIC against M. catarrhalis,[8]; [28],25 µg/mL
same,MIC against P. mirabilis,[9]; [29],50 µg/mL
same,MIC against P. vulgaris,[10]; [30],25 µg/mL
same,MIC against S. marcescens,[11]; [31],25 µg/mL
PRT780 (EYSSCSRHPCQNGGTCINGRTSFTCACRHPFTGDNCT; listed as Homo sapiens),MIC,[1],12.5 µg/mL
same,MIC (μg/mL) E. coli BL21,[2]; [12],50 µg/mL
same,MIC (μg/mL) P. aeruginosa,[3]; [13],12.5 µg/mL
same,MIC (μg/mL) K. pneumonia,[4]; [14],50 µg/mL
same,MIC (μg/mL) E. cloacae,[5]; [15],12.5 µg/mL
same,MIC (μg/mL) A. hydrophila,[6]; [16],50 µg/mL
same,MIC (μg/mL) C. diversus,[7]; [17],25 µg/mL
same,MIC (μg/mL) M. catarrhalis,[8]; [18],12.5 µg/mL
same,MIC (μg/mL) P. mirabilis,[9]; [19],25 µg/mL
same,MIC (μg/mL) P. vulgaris,[10]; [20],50 µg/mL
same,MIC (μg/mL) S. marcescens,[11]; [21],12.5 µg/mL
